In PMC12406258, “Uncovering the Unusual Inhibition Mechanism of a Trypanosome Alternative Oxidase Inhibitor Displaying Broad-Spectrum Activity against African Animal Trypanosomes” (Journal of Medicinal Chemistry, 2025):
Where “and” joins values, the source holds several entries; their conditions need not be identical. Equal entries are not always repeated. Where two headings read alike, the source gives them in different places.

Legend:
[1] = design: method as in previous studies; details: ref previous studies, cited from earlier work
STIB900 mouse model = tested on: STIB900 mouse model; design: method as in previous studies; details: 24 h after the last treatment, 4 × 10 mg/kg ip; ref previous studies; cited from earlier work
[2] = target: T1, recombinant TAO (ΔMTS rTAO) (Trypanosoma brucei brucei, UniProt Q26710); details: ref reported earlier, cited from earlier work
T1 construct: […]; SUMO (Small Ubiquitin-related Modifier) fusion from the expression system; made in house

T. equiperdum WT = test: Resazurin-based drug sensitivity assay, T. equiperdum WT; assay type: cell-based; details: Trypanosoma equiperdum
Procedure: (§1) Other Trypanosoma species used in this study include T. evansi AntTat 3/3 (Wild-type); and T. equiperdum BoTat 1 (Bordeaux trypanozoon antigenic type 1) P (wild-type). All the trypanosomes were used only as bloodstream trypomastigotes and cultured in the standard Hirumi’s Modified Iscove’s medium #9 (HMI-9), supplemented with 10% heat-inactivated Fetal Bovine Serum (FBS), 14 μL/L β-mercaptoethanol, and 3.0 g sodium hydrogen carbonate per liter of medium (pH 7.4). Trypanosomes were cultured in vented flasks at 37 °C in a 5% CO2 atmosphere.
(§2) Briefly, this protocol involves preparing a 96-well cell culture plate with a 100 μL serially diluted test compound (200 μM top concentration) in HMI-9 + 10% FBS (24 wells per control drug or test compound, with the 24th well serving as drug-free). This is followed by adjusting the cell density of mid-log-phase trypanosome cultures to the required concentration of 2 × 10^5 cells/mL (2 × 10^4 cells/well). […] All incubations were carried out at 37 °C with 5% CO2. […] EC50 values were calculated using GraphPad Prism 9.0 software via nonlinear regression with an equation for a sigmoidal dose–response curve with variable slope (GraphPad Software Inc., San Diego, CA, USA).

[3] = tested on: T. b. brucei WT (s427) trypomastigotes; test: microbe, parasite or virus in culture; assay type: cell-based; details: Trypanosoma brucei
Procedure: as §1, §2

T. brucei aqp1-3 null = test: microbe, parasite or virus in culture; assay type: cell-based, T. b. brucei; details: Trypanosoma brucei, read-out: aqp1-3 null EC50
Procedure: as §1, §2

T. brucei B48 = test: microbe, parasite or virus in culture; assay type: cell-based, T. b. brucei; details: Trypanosoma brucei, read-out: T. brucei B48 EC50
Procedure: as §1, §2

T. evansi WT = test: Resazurin-based drug sensitivity assay, T. evansi WT; assay type: cell-based
Procedure: as §1, §2

[4] = target: T1, recombinant TAO (ΔMTS rTAO); test: Inhibition of ubiquinol oxidase activity of purified recombinant TAO; assay type: biochemical, T. brucei
Procedure: This physiologically relevant rTAO enzyme was used throughout this work and in this experiment to study the inhibitory activity of 1.
As previously described, the Ubiquinol oxidase activity measurement was carried out using recombinant TAO lacking the mitochondrial targeting signal (ΔMTS). […] The reaction was carried out in a 1 cm cuvette for 2 min using a V-630 Jasco UV–vis spectrophotometer (Jasco Corporation, Tokyo, Japan). Briefly, the procedure involves preincubating 250 ng of the enzyme for 2 min in a 50 mM Tris-HCl (pH 7.3) buffer containing the detergent octaethylene glycol monododecylether (0.05% (w/v)) in a total reaction volume of 1 mL at 25 °C. […] For the inhibition reaction, 250 ng of the enzyme was preincubated with varying inhibitor concentrations for 2 min using the same buffer before the substrate was added. […] This was achieved using the same protocol but without TAO. […] The residual activities were plotted against the corresponding inhibitor concentration in a GraphPad Prism-9 software to obtain the IC50 value.

[5] = target: T1, recombinant TAO (ΔMTS rTAO); details: ref earlier reports; cited from earlier work
T. b. brucei SUR10 = test: microbe, parasite or virus in culture; assay type: cell-based; details: Trypanosoma brucei, read-out: SUR10 EC50
T. congolense WT = test: Drug sensitivity assay, T. congolense WT bloodstream forms; assay type: cell-based; details: Trypanosoma congolense
Procedure: The susceptibilities of trypanosomes to compound 1 were determined as previously described using the resazurin (Alamar Blue) assay. Briefly, this protocol involves preparing a 96-well cell culture plate with a 100 μL serially diluted test compound (200 μM top concentration) in HMI-9 + 10% FBS (24 wells per control drug or test compound, with the 24th well serving as drug-free). This is followed by adjusting the cell density of mid-log-phase trypanosome cultures to the required concentration of 2 × 10^5 cells/mL (2 × 10^4 cells/well). Then, 100 μL of the adjusted cell density/culture was added to all 24 wells in the plate, then incubating trypanosomes and test compound for 48 h followed by the addition of 20 μL filter-sterilized resazurin solution prepared by adding 25 mg resazurin sodium salt to 200 mL filter-sterilized PBS. This was followed by a further 24 h of incubation. All incubations were carried out at 37 °C with 5% CO2. […] Fluorescence was measured in the 96-well plates with a FLUOstar Optima (BMG Labtech, Durham, NC, USA) at wavelengths of 544 nm for excitation, 590 for emission, and a gain of 1250. EC50 values were calculated using GraphPad Prism 9.0 software via nonlinear regression with an equation for a sigmoidal dose–response curve with variable slope (GraphPad Software Inc., San Diego, CA, USA).

[6] = read-out: rTAO IC50 (supplementary csv, compounds 4, 6, 8-10, 12), IC50 (µM)
[7] = read-out: IC50 against rTAO, activity against TAO reported earlier

T1 sequence (Q26710 26-329, stated change not applied): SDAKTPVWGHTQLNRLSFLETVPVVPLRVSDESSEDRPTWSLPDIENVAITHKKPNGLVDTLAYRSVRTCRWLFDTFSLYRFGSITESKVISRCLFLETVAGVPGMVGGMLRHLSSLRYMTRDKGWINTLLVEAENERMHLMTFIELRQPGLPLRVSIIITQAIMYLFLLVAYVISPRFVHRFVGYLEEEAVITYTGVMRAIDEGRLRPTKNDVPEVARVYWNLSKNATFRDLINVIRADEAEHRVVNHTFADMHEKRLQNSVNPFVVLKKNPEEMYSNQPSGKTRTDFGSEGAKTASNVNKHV

For `Cc1cc(O)cc(O)c1C(=O)OCCCCCCCCCCCCCC[n+]1cccc2ccccc21.[Br-]` [Compound 9], the “Phase 2 metabolism” value [1] is given as “lack of phase 2 metabolism”, the Reduction of parasitemia (STIB900 mouse model) is given as 95% and the IC50 [2, 6] is given as 0.104 ± 0.011 µM.
`N=C(N)c1ccc(OCCCCCOc2ccc(C(=N)N)cc2)cc1` [Pent., Pentamidine isethionate] gave an EC50 (T. equiperdum WT) of 8.1 ± 1.1 nM, an EC50 ([3]; read-out: T. b. brucei WT (+5 mM glycerol) EC50, incubated in the presence of 5 mM glycerol) of 6.2 ± 1.7 nM and an EC50 ([3]; s427, no glycerol, n ≥ 4, read-out: T. b. brucei WT (no glycerol) EC50) of 4.2 ± 0.8 nM. For the same compound, the EC50 (T. brucei aqp1-3 null) was 51.4 ± 11.8 nM, the EC50 (T. brucei B48) was 1020 ± 200 nM and the EC50 (T. evansi WT) was 5.1 ± 2.1 nM.
For `Cc1cc(O)ccc1C(=O)CCCCCCCCCCCCCCC[P+](c1ccccc1)(c1ccccc1)c1ccccn1.[Br-]` [Compound 3], the IC50 [4] was greater than 5000 nM and the “Inhibition of TAO at the highest concentration tested” value ([4]; 5 μM) was “did not inhibit”.
For `Cc1cc[n+](CCCCCCCCCCCCCCOC(=O)c2c(C)cc(O)cc2O)cc1` [Compound 10], the IC50 [2, 6] is listed as greater than 5 µM.
In the case of `Cc1cc(O)cc(O)c1C(=O)OCCCCCCCCCCCCCC[P+](c1ccccc1)(c1ccccc1)c1ccccc1.[Br-]` [Compound 8], the “Half-life (phase 2 metabolism)” value ([1]; S9 fraction and cofactor UDPGA) is given as “approximately 2 h”, the Reduction of parasitemia (STIB900 mouse model) is given as 95% and the IC50 [2, 7] is given as ~0.08 µM and 0.088 µM. The “Type of inhibition of TAO” value [5] was “competitive”.
For `O=C(NO)c1ccccc1O` [SHAM, Salicylhydroxamic acid], the EC50 (T. brucei aqp1-3 null) was 6880 ± 110 nM.
In the case of `Cc1cc(O)cc(O)c1C(=O)OCCCCCCCCCCCCCC[P+](c1ccccc1)(c1ccccc1)c1ccccn1` [Compound 2, {14-[(2,4-Dihydroxy-6-methylbenzoyl)-oxy]-tetradecyl}-diphenyl(pyridin-2-yl)-Phosphonium Bromide], the IC50 [4] is reported as 1600 nM.
For `Cc1cc(O)ccc1C(=O)OCCCCCCCCCCCCCC[P+](c1ccccc1)(c1ccccc1)c1ccccc1` [Compound 4], the IC50 [2, 7] is given as 0.081 µM and ~0.08 µM.
`Cc1ccc(C(=O)Nc2ccc(S(=O)(=O)O)c3cc(S(=O)(=O)O)cc(S(=O)(=O)O)c23)cc1NC(=O)c1cccc(NC(=O)Nc2cccc(C(=O)Nc3cc(C(=O)Nc4ccc(S(=O)(=O)O)c5cc(S(=O)(=O)O)cc(S(=O)(=O)O)c45)ccc3C)c2)c1` [Suramin, reference compound] gave an EC50 (T. b. brucei SUR10) of 190 ± 20 nM.
For `C/C(=C\Cc1c(O)c(Cl)c(C)c(C=O)c1O)CC/C=C(\C)[C@@H]1CC(=O)C(C)(C)O1` [AF, Ascofuranone, reference compound], the “Type of inhibition of TAO” value [5] is given as “competitive”.
`N=C(N)c1ccc(/N=N/Nc2ccc(C(=N)N)cc2)cc1` [Dim., Diminazene aceturate] gave an EC50 (T. equiperdum WT) of 33.2 ± 10 nM, an EC50 ([3]; read-out: T. b. brucei WT (+5 mM glycerol) EC50) of 81 ± 13 nM and an EC50 ([3]; read-out: T. b. brucei WT (no glycerol) EC50) of 65 ± 21 nM. The EC50 (T. congolense WT) was 252 ± 18 nM, the EC50 (T. brucei B48) was 1220 ± 20 nM and the EC50 (T. evansi WT) was 51.4 ± 12 nM.
`Cc1c(Cl)c(O)c(Cl)c(O)c1C(=O)OCCCCCCCCCCCCCC[P+](c1ccccc1)(c1ccccc1)c1ccccc1` [Compound 7, {14-[(3,5-Dichloro-2,4-dihydroxy-6-methylbenzoyl)-oxy]-tetradecyl}-Triphenylphosphonium Bromide] showed an IC50 [4] of 160 nM.
In the case of `Cc1cc(O)ccc1C(=O)OCCCCCCCCCCCCCC[n+]1cccc2ccccc21.[Br-]` [Compound 6], the IC50 [2, 6] is listed as 0.03 ± 0.005 µM and the “Type of inhibition of TAO” value [5] is listed as “competitive”.
